According to patent publication US20230144385A1, “ETHANOLAMINE FORMULATION FOR TREATING EPITHELIAL OVARIAN CARCINOMA” (METANOI THERAPEUTICS, INC., priority 2020, published 2023):

Columns and labels:
PC-3 cells [1] = test: Intracellular Etn and PhosE levels in treated PC-3 cells; format: cell-based, human; conditions: PC-3 cells treated with Etn or PhosE
Excerpt: (§1) FIG. 2. […] (B) Effect of choline kinase inhibition on proliferation of PC-3 cells. (C) Intracellular PhosE level upon Etn treatment.

[2] = tested on: prostate cancer xenograft tumors; test: TEM and LC/MS-MS lipidomics of xenograft tumors; format: in vivo, mice
Excerpt: FIG. 6. […] Ultra-thin sections were cut on Boeckeler MTx ultramicrotome, counterstained with lead citrate, and examined on a LEO 906e TEM. Mitochondria and accumulated lipid granules are highlighted by red arrows. […] Left panels, scale bar ¼2 […]; right panels, scale bar ¼5 mm. […] Levels of PE (i), PS (ii), PC (iii), and SM (iv) lipids in control and Etn-treated tumors. In the abbreviation of lipid, 1st and 2nd numbers denote the number of carbon atoms and unsaturated bonds present in the lipid, respectively. Lipid amounts were quantified by LC/MS-MS. Values and error bars shown represent mean and SE, respectively.
Lipidomic analyses of tumors from control and Etn-treated groups quantified 402 lipids from various lipid classes such as phosphatidylethanolamine (PE), phosphatidylcholine (PC), phosphatidylserine (PS), lysophospholipids, ceramides, and sphingomyelin (SM). Levels of 21 PE lipids (FIG. 6Bi), and other lipids from the PS (FIG. 6Bii), PC (FIG. […]), and SM (FIG. 6Biv) classes were increased in Etn-treated tumors. Thus, PhosE and phospholipid accumulation downregulates HIF-1α, precipitates a bioenergetics/metabolic crisis, activates p53-mediated signaling and culminates in cell death.

[3] = tested on: prostate cancer xenograft (PC-3-luc tumors); test: Prostate cancer xenograft model, oral treatment; format: in vivo, mice
Excerpt: FIG. 3. (Ai) Representative bioluminescent images of one animal per group indicating progression of tumor growth over 4 weeks in control and Etn-treated mice. (Aii) Tumor growth monitored (by vernier calipers) over a period of 4 weeks. (Aiii) Weight of tumors from control and Etn-treated mice.
The in vivo efficacy of this formulation was first examined (FIG. 3A). There was an ˜67% reduction in tumor volume (FIG. 3Aii) and ˜55% reduction in tumor weight (FIG. 3Aiii) after 4 weeks of treatment.

PC-3 cells [4] = test: MTT cell survival/proliferation assay, PC-3 cells; format: cell-based, human; conditions: 48 hours, pH 7.4, compared with PhosE
Protocol: (§2) PhosE was ineffective in inhibiting proliferation and colony formation of these cell lines up to 100 mg/ml (data not shown).

PC-3 cells [5] = test: Immunoblots of cell cycle and apoptosis markers in PC-3 cell lysates; format: cell-based, human
Excerpt: (§3) FIG. 4. (A) Immunoblots of control and Etn-treated cell lysates for pRb, cdk4, cdk2, p21, c-PARP, Bim, Bcl-2 and β actin. […] (C) Immunoblots of control and Etn-treated tumors lysates for p53, p21, Bax, pBcl-2, c-PARP, Bim, Bid and β actin. (D) Micrographs showing IHC staining of Ki67 and c-PARP in control and Etn-treated prostate cancer xenografts.

PC-3 cells [6] = test: Oxygen consumption rate in PC-3 cells; format: cell-based, human
Protocol: (§4) FIG. 5. (A) Immunoblots of control and Etn-treated cell lysates for HIF1-α. […] Intracellular glucose (Ci) and glutamine (Cii) levels in control and Etn-treated tumors. (D) Effect of choline kinase inhibition on intracellular levels of glucose (Di) and glutamine (Dii) in Etn-treated cells.
(§5) It was hypothesized that PhosE accumulation alters HIF1-a expression/function that impairs glucose/glutamine metabolism leading to metabolic stress, which activates p53-induced cell death. […] OCR was measured in control and Etn-treated cells, and evaluated the glucose and glutamine content in (a) cultured cells and (b) tumors from control and Etn-treated mice. […] Inhibition of CK abrogated the Etn-mediated decrease in cellular glucose and glutamine content (FIGS. 5Di, ii).

HIF1-α = HIF1-α immunoblot of treated cell lysates; format: cell-based; conditions: Etn-treated cells
Protocol: as §4, §5

[7] = GI tract stability, Etn compared with PhosE; format: in vitro ADME; conditions: compared to PhosE
Excerpt: (§6) ADM E and pharmacological properties of orally-delivered PhosE and Etn [both phosphatidylethanolamine (PE) lipid precursors] were first compared. […] Our mechanistic studies identified CK overexpression—a hallmark of metabolic reprogramming in multiple cancer types—in prostate tumor cells compared to adjacent normal. […] It was hypothesize that an Etn-based formulation can be developed into a safe, selective, pharmacodynamically- and pharmacokinetically-favorable, IND entity that singly or synergistically with the ICI Nivolumab, provides a novel therapeutic option for chemo-resistant EOCs/OCCC.

PC-3 cells [8] = test: Annexin V flow cytometry, PC-3 cells; format: cell-based, human
CYP = test: CYP-related drug-drug interaction liability; format: in vitro ADME
Excerpt: as §6

[9] = tested on: PC-3, DU145, C42B and RWPE-1 cells; test: MTT cell survival, prostate cancer lines versus normal prostate cells; format: cell-based; conditions: 0.5 and 1 mg/mL, 48 hours, pH 7.4
Protocol: as §2

PC-3 cells [10] = test: PC-3 survival on Etn treatment with or without choline kinase inhibitor; format: cell-based, human; conditions: with CK inhibition
Excerpt: as §1

PC-3 cells [11] = test: Clonogenic survival assay, PC-3 cells; format: cell-based, human; conditions: 2 mg/mL, pH 7.4, PC-3 cells
Protocol: as §2

cultured cells = test: Glucose and glutamine content of cultured cells; format: cell-based; conditions: versus control
Protocol: as §4, §5

[12] = tested on: prostate cancer xenograft tumors; test: Glucose and glutamine content of tumors; format: in vivo, mice; conditions: versus control
Protocol: as §4, §5

[13] = tested on: MDA-MB-468, OVCAR-3, HCT116 and CFPAC cells; test: MTT dose-response on cancer cell lines from diverse tissues; format: cell-based
Protocol: as §2

[14] = tested on: prostate cancer xenografts; test: Immunoblots and IHC of xenograft tumors; format: in vivo, mice
Excerpt: as §3

FR1 = FR1 (Homo sapiens, UniProt P15328); conditions: read-out: affinity; cited from earlier work
FR2 = FR2 (Homo sapiens, UniProt P14207); conditions: read-out: affinity; cited from earlier work
[15] = tested on: BT-549 breast cancer cells; conditions: BT-549 cells with amplified centrosomes; cited from earlier work
[16] = molecular target: KIFC1/microtubule (MT) binary complex (Homo sapiens, UniProt Q9BW19); conditions: ATP-competitive, MT-noncompetitive; cited from earlier work
[17] = 40 mg/kg Etn, pH=5.0, oral, after 4 weeks

Sequence of FR2 (P14207 17-230): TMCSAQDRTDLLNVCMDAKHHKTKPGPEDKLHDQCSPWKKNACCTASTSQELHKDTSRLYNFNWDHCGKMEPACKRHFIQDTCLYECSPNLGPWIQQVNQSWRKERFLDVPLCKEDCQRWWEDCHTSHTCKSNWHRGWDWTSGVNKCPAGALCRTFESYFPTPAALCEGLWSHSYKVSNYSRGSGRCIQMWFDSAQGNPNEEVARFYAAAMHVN
Sequence of KIFC1/microtubule (MT) binary complex (Q9BW19 whole entry, species assumed): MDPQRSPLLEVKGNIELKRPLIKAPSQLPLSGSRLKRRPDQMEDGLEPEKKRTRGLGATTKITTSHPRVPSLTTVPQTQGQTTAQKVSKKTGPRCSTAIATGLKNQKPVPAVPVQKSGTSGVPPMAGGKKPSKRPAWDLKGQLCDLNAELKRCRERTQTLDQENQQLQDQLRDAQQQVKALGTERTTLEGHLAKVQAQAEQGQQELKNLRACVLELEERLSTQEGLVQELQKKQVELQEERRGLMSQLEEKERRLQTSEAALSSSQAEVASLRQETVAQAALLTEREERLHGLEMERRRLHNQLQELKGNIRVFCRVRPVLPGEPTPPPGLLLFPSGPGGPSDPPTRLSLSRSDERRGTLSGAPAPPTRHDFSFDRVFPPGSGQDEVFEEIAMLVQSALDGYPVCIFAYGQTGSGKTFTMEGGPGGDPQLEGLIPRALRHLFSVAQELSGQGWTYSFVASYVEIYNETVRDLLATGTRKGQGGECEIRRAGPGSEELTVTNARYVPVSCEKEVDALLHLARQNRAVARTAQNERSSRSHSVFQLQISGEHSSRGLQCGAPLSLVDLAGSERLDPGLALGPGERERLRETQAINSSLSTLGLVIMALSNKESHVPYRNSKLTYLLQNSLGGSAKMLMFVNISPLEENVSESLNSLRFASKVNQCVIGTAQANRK
Sequence of KIFC1/microtubule (MT) binary complex (P68363 whole entry partner, species assumed): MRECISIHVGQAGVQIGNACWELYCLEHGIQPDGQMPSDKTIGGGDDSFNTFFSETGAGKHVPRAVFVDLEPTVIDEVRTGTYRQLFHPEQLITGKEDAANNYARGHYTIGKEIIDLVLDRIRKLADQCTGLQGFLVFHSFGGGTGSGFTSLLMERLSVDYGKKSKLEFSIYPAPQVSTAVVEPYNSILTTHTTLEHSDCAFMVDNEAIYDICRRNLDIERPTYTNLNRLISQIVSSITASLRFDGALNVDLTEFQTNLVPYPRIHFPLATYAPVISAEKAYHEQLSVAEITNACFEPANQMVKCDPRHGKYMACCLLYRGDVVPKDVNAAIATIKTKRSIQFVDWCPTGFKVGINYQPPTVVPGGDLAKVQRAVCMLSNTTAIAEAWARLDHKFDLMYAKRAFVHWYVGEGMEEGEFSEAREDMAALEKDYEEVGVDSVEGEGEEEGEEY
Sequence of KIFC1/microtubule (MT) binary complex (Q9BVA1 whole entry partner, species assumed): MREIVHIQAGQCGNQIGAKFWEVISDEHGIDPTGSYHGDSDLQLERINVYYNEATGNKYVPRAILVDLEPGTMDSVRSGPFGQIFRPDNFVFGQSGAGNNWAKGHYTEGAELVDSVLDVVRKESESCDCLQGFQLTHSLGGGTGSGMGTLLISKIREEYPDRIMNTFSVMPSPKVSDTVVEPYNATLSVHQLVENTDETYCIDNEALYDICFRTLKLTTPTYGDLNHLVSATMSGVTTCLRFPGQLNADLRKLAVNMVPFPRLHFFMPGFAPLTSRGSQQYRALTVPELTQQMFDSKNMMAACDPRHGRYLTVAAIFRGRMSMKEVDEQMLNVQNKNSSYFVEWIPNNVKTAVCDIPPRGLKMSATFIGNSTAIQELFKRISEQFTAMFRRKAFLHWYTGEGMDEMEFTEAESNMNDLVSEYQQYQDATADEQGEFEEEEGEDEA
Sequence of FR1 (P15328 25-234): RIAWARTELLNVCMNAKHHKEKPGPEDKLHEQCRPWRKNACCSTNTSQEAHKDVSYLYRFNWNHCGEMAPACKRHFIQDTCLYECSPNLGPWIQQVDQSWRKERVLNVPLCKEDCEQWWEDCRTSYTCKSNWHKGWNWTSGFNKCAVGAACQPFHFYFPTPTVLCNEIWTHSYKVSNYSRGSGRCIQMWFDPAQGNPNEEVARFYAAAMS

With NCCO [Etn, Monoethanolamine] the “intracellular PhosE levels” value (PC-3 cells [1]) was “more pronounced”, the “mitochondrial morphology (TEM)” value ([2]; 40 mg/kg Etn-treated tumors versus controls) was “elongated mitochondria with highly degraded matrices” and the “levels of PE, PS, PC and SM lipids” value ([2]; Etn-treated tumors, LC/MS-MS) was “increased”. For the same compound, the body weight ([3]; 40 mg/kg Etn, oral, over 4 weeks) was “no change in body weight”, the “reduction in tumor volume” value [3, 17] was ~67% and the “reduction in tumor weight” value [3, 17] was ~55%. For the same compound, the “intratumoral Etn” value ([3]; after 4 weeks of Etn treatment) was “no significant change”, the “intratumoral PhosE level versus controls” value ([3]; after 4 weeks of Etn treatment) was ~38% and the “inhibition of PC-3 cell proliferation” value (PC-3 cells [4]) was “more effective”. For the same compound, the “apoptosis markers (c-PARP, Bim, Bcl-2)” value (PC-3 cells [5]) was “increased levels of proapoptotic markers such as c-PARP and Bim, and decreased antiapoptotic molecules such as Bcl-2”, the “cell cycle markers (pRb, Cdk4, Cdk2, p21)” value (PC-3 cells [5]) was “downregulated pRb, Cdk4, and Cdk2, and upregulated p21” and the “oxygen consumption rate (OCR)” value (PC-3 cells [6]) was “decreased OCR”. The HIF1-a expression (HIF1-α) was “strongly downregulated”, the GI tract stability [7] was “better GI tract stability” and the “annexin-V positive apoptotic cells” value (PC-3 cells [8]) was “increased the number of annexin-V positive apoptotic cells”. For the same compound, the “CYP-related drug-drug interaction liability” value (CYP) was “lacked CYP-related drug-drug interaction liability”, the “reduction of viability, prostate cancer lines versus normal prostate cells” value [9] was “more effective in reducing viability of prostate cancer lines” and the “antiproliferative activity in presence of CK inhibitor” value (PC-3 cells [10]) was “significantly attenuated”. For the same compound, the “conversion of Etn into PhosE in presence of CK inhibitor” value (PC-3 cells [10]) was “reduced conversion of Etn into PhosE”, the “decrease in colony numbers” value (PC-3 cells [11]) was ~97% and the glucose content (cultured cells) was “significantly reduced”. The glutamine content (cultured cells) was “significantly reduced”, the glucose content [12] was “significantly reduced” and the glutamine content [12] was “significantly reduced”. The inhibition of proliferation ([13]; breast, ovary, colon and pancreas cell lines) was “inhibited proliferation in all the cell lines tested”, the “tumor lysate markers (p53, p21, Bax, pBcl2, c-PARP, Bim, Bid)” value ([14]; 40 mg/kg Etn) was “upregulation of p53, p21, Bax, pBcl2, c-PARP, Bim and Bid” and the “Ki67 and c-PARP expression (IHC) in tumors” value ([14]; treated versus control tumors) was “marked decrease in Ki67 expression and increase in c-PARP expression”.

In the case of CN1c2c(nc(N)[nH]c2=O)NC[C@@H]1CNc1ccc(C(=O)N[C@@H](CCC(=O)O)C(=O)O)cc1 [6S 5-methyltetrahydrofolate], the Kd (FR1) is given as 0.055 µM and the Kd (FR2) is given as 0.001 µM.

For NCCOP(=O)(O)O [PhosE, phosphoethanolamine, reference compound], the “intracellular PhosE levels” value (PC-3 cells [1]) was “increased intracellular PhosE levels”, the “inhibition of tumor growth compared with Etn” value ([3]; orally delivered formulations) was “less effective than Etn” and the “decrease in colony numbers” value (PC-3 cells [11]) was “ineffective in decreasing colony numbers”. For the same compound, the “inhibition of proliferation and colony formation” value ([13]; up to 100 mg/ml, data not shown) was “ineffective”.

For CCCc1cc(C(=O)N[C@H](Cc2ccc(-c3cccc(OC(F)(F)F)c3)nc2)C(=O)N[C@@H]2CCNC2)sc1C [AZ82], the centrosome declustering [15] is given as “causes centrosome declustering” and the Ki [16] is given as 0.043 µM.
